Experimental findings from US7582663B2, “Biaromatic compounds which activate PPARγ type receptors and cosmetic/pharmaceutical compositions comprised thereof” (Galderma Research & Development, priority 2002, dated 2009) are described below.

The target of the test is T1, PPARγ (Homo sapiens, UniProt P37231).
T1 sequence (P37231 238-505 limits assumed): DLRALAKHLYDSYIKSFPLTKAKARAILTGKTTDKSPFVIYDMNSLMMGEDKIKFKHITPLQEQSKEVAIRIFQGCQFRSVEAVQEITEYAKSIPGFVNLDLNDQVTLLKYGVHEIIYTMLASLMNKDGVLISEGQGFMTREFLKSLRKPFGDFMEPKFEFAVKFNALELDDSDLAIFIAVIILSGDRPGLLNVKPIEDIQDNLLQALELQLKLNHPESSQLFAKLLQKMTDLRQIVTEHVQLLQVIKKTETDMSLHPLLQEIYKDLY
Nature of the test: Crossed-curve PPAR transactivation test (PPARγ). To be noted: HeLN cells stably transfected with Gal-hPPARγ and luciferase reporter; Schild regression against reference agonist; n.a. means not active; read-out: PPARγ Kd app. It is filed as cell-based. The procedure: The activation of receptors with an agonist (activator) in HeLN cells leads to the expression of a reporter gene, luciferase, which, in the presence of a substrate, generates light. The modulation of the receptors is measured by quantifying the luminescence produced after incubating the cells in the presence of a reference agonist. The ligands displace the agonist from its site. The measurement of the activity is performed by quantifying the light produced. This measurement makes it possible to determine the modulatory activity of the compounds according to the invention by determining the constant that is the affinity of the molecule for the receptor. Since this value can fluctuate depending on the basal activity and the expression of the receptor, it is referred to as Kd apparent (KdApp in nM).
This is 88 measurement points for 1 product and 1 receptor. The remaining 8 wells are used for repeatability controls.
Measurements are also taken for total agonist controls with the same products.
The HeLN cell lines used are stable transfectants containing the plasmids ERE-βGlob-Luc-SV-Neo (reporter gene) and PPAR (α, δ, γ) Gal-hPPAR. These cells are inoculated into 96-well plates at a rate of 10 000 cells per well in 100 μl of DMEM medium without phenol red and supplemented with 10% of defatted calf serum. The plates are then incubated at 37° C. and 7% CO2 for 16 hours.
The various dilutions of the test products and of the reference ligand are added at a rate of 5 μl per well. The plates are then incubated for 18 hours at 37° C. and 7% CO2. The culture medium is removed by turning over and 100 μl of a 1:1 PBS/luciferine mixture are added to each well. After 5 minutes, the plates are read by the luminescence detector.
On the technique in general: Reporter assays use an easily measured gene product as a stand-in for the process of interest.
Take `CCCc1nnc(C(Cc2ccc(-c3cccc(CN(C)C(=O)c4ccc5cc(OCOCCOC)ccc5c4)c3)cc2)OCC)o1` (stereo not drawn) [Example 1, N-{4′-[2-ethoxy-2-(5-propyl[1,3,4]oxadiazol-2-yl)ethyl]biphenyl-3-ylmethyl}-N-methyl-6-(2-methoxyethoxymethoxy)naphthalene-2-carboxylamide]: the Kd was found to be 250 nM.

For the compound `CCCc1nnc(C(Cc2ccc(-c3cccc(CN(C)C(=O)c4ccc(Oc5ccccc5)cc4)c3)cc2)OCC)o1` (stereo not drawn) [Example 2, N-{4′-[2-ethoxy-2-(5-propyl[1,3,4]oxadiazol-2-yl)ethyl]biphenyl-3-ylmethyl}-N-methyl-4-phenoxybenzamide], the Kd was determined as 1000 nM.

`CCCc1nnc(C(Cc2ccc(-c3cccc(CN(C)C(=O)c4ccc5cc(C(=O)OC)ccc5c4)c3)cc2)OCC)o1` (stereo not drawn) [Example 7, methyl 6-({4′-[2-ethoxy-2-(5-propyl[1,3,4]oxadiazol-2-yl)ethyl]biphenyl-3-ylmethyl}methylcarbamoyl)naphthalene-2-carboxylate]: the Kd was found to be 250 nM.
